Test results: patent publication US20060247156A1, “Use of neuropeptides for ligament, cartilage, and bone healing” (priority 2004, published 2006)

How the values were obtained:
intact MCL = settings: guanethidine 40 mg/kg/day, 10 days
Protocol: Ligament thickness and width was measured optically, and MCL area was estimated with elliptical geometry. […] For strain measurements, optical markers were placed onto the ligament tissue near the insertion sites. A small preload of 0.1N was applied to the ligaments in order to obtain a uniform starting point. The ligaments were then preconditioned to 1% strain for 10 cycles.
The mechanical properties that were examined in this study were maximum force, ultimate stress, strain at failure, elastic modulus, and area.

[1] = test system: sympathetic nervous system; settings: rat, in vivo
Protocol: For all groups, anesthesia (isofluorane 0.5-3%) was initiated in an induction chamber and maintained with a facemask. […] Both groups were survived for 10 days following implantation of the pump at which time the animals were euthanized with intraperitoneal injection of pentobarbitone. Throughout the study only one ligament per animal was used for a particular experimental test protocol (described below).
Statistical analysis was performed using an unpaired t-test (alpha=0.05) to compare differences between the control and treatment groups.

MCL = MCL organ culture with guanethidine, mechanical testing; settings: organ culture 10 days with guanethidine in media
Protocol: Bilateral MCLs (n=6) including intact femoral and tibial segments were aseptically harvested from untreated rats.
During and after harvest, tissues were rinsed in sterile phosphate buffered saline (PBS) containing penicillin (100 U/mL), streptomycin (100 μg/mL), and fungizone (0.25 μg/mL). Bone blocks were trimmed in order to minimize the amount of bone marrow, which may alter the culture environment. Tissues were then cultured in Dulbecco's Modified Eagle's Medium (DMEM) supplemented with 10% fetal bovine serum, nonessential amino acids (0.1 mM), L-gutamine (4 mM), penicillin (100 U/mL), streptomycin (100 μg/mL), and fungizone (0.25 μg/mL). […] The cultures were maintained in an incubator at 37° C. and 5% CO2. Media were changed every 48 hours at which time tissues were rinsed with sterile PBS to reduce drug carryover into the fresh media containing the treatment drug or equivalent volume of carrier. Organ culture was maintained for 10 days after which time the MCLs were tested mechanically in the same manner as the in vivo treatment group (described below).

N=C(N)NCCN1CCCCCCC1 [guanethidine]
mean ultimate tensile force (intact MCL): not significantly decreased
strain at failure (intact MCL): 8.1±0.4%
wet weight (intact MCL; tissue hydration): 6.8 ± 0.7 g
abnormalities in movement, body weight, or behavior [1]: No abnormalities
ultimate stress (MCL): 70.29±19.15 MPa
